From US9856218B2, “Inhibitors of PRMT5 and methods of their use” (Ohio State Innovation Foundation, priority 2013, dated 2018)

Experiments:
[1] = tested on: AML cell lines (MV4-11 (FLT3-ITD) and Kasumi-1 (KITmut)); test: Apoptosis, AnnexinV and PI flow cytometry; type: cell-based; conditions: 25 and 50 μM for 48 hours
Experimental: (§1) Cells (1×10^6) were washed and passed through a […] filter (BD), then re-suspended in 200 μL binding buffer with or without 5 μL AnnexinV (for apoptosis detection) or CD11b (for maturation detection) antibody (BD Biosciences, Billerica, Mass.). After 15 min. of incubation cells were washed with PBS, re-suspended in 500 μL flow buffer and analyzed on a FACSCalibur cytometer (BD Biosciences). For apoptosis detection, 5 μL propidium iodide (PI) (BD Biosciences) was added to cell before running flow cytometry. Sorting for GFP-positive cells was carried out on BD FACS Aria instrument after filtering and washing cells 2× with ice cold PBS supplemented with 2% calf bovine serum and re-suspending in FACS buffer.
(§2) PRMT5 inhibition by C12 was also effective in promoting apoptosis and differentiation.
Referring to FIG. 36, a flow cytometry analysis of AML cell lines treated with PRMT5 inhibitor and stained for cell surface markers AnnexinV and PI indicates a dose-dependent increase in the percentage of apoptotic and dead cells when compared to DMSO-treated cells. Induction of programmed cell death was stronger in the FLT3-ITD AML cell line MV4-11.

[2] = tested on: H4R3me2 binding to miR-29b regulatory site; test: ChIP assay at miR-29b regulatory site; type: cell-based
Experimental: Cross-linked chromatin was prepared by incubating cells in 1% formaldehyde for 10 min at room temperature and quenching with ice cold 1M Glycine. Cells were sonicated in 1% SDS lysis buffer and sheared chromatin was used to pull down protein/DNA complexes using antibodies against SP1, p65 (ChIP-grade Millipore), H4R3me2, H3R8me2 (Abcam) and RNA Pol II as positive control and normal IgG (Millipore) as negative control. Reverse cross-linked DNA was purified using QIAquick PCR Purification kit (Qiagen) and quantitative real-time PCR was carried out using SYBER green incorporation and primers designed for either FLT3 promoter region (sequenceF:R:) or miR-29b enhancer region (sequenceF:R:). DNA signals were calculated relative to input DNA amount and in comparison to expression values of negative control IgG.
The regulatory region of pri-miR-29b was later checked for possible docking of PRMT5 (indirect binding) or H3R8me2 and/or H4R3me2 (direct binding) using ChIP assay with and without PRMT5 inhibition. […] The efficiency of miR-29b in modulating SP1 was confirmed by miR-29b gain- and loss-of function assays in AML cells, and significant suppression of SP1 in miR-29b overexpressing cells was detected, while SP1 was re-expressed when cells were treated with miR-29b knockdown (FIGS. 49A and 49B). […]

[3] = tested on: AML cells (MV4-11 (FLT3-ITD) and Kasumi-1 (KITmut)); test: Differentiation marker CD11b, flow cytometry; type: cell-based; conditions: MV4-11 and Kasumi-1
Experimental: as §1, §2
The increase in CD11b expression in AML cells lines followed a dose-dependent manner.

[4] = In vivo pharmacokinetics, plasma concentration; parameters: species or system Mouse; conditions: mouse, in vivo
Excerpt: Pharmacokinetic data of compounds HLCL-7, HLCL-61, and HLCL-66 taken from an in vivo study is illustrated in Table 10. […]

[5] = tested on: FLT3 response element in THP-1 cells; test: FLT3-promoter-Luciferase reporter assay; type: cell-based
Experimental: Promoter region of FLT3 (SEQ ID NO. 1: […] […] […] […] […] […] […] […] […] […] […] […] […] […] CGCGAGGCGCGCCGCT.[…] […] […] […] […] […] […]) was cloned into pGL4.11 [luc2P] vector. THP-1 cells were transfected with empty vector or FLT3-promoter luciferase plasmid and Renilla in presence or absence of C12. Firefly luciferase and Renilla luciferase activity was measured using Dual-Luciferase Reporter Assay System (Promega).
A key regulator of FLT3 expression in AML has been previously identified: a transactivation complex composed of transcription factors SP1 and NFκB(p65) (Liu, S., et al. (2010) Cancer Cell 17, 333-347; Blum, W., et al. (2012) Blood 119, 6025-6031). […] The role of PRMT5 in recruitment and localization of these factors to regulatory region of FLT3 was then tested using a chromatin immunoprecipitation (ChIP) assay and antibodies specific for NFκB(p65), SP1 and primers designed to amplify predicted binding sites at the promoter region of FLT3 (Liu, S., et al. (2008) Blood 4, 2364-2373; Liu, S., et al. (2010) Cancer Cell 17, 333-347). […] PRMT5 was then overexpressed in MV4-11 and THP-1 cells, and the ChIP experiment repeated. […] Additionally, supporting a functional role for PRMT5 in modulating FLT3 activity, inhibition of PRMT5 following exposure to C12 disrupted the FLT3 response element (i.e. FLT3-promoter-Luciferase reporter) activities in THP-1 cells (FIG. 43B). […]

multiple cell lines = test: Proliferation of multiple cell lines (FIG. 59); type: cell-based; conditions: FIG. 59A-E
Experimental: Proliferation of multiple cell lines was evaluated for CMPD 5, CMPD 7, HLCL61, HLCL-65, and HLCL-66 (FIG. 59A-E).

[6] = molecular target: T1, recombinant human PRMT5/MEP50 enzyme (Homo sapiens, UniProt O14744); test: Epigenase PRMT methyltransferase (type II-specific) activity/inhibition assay kit; type: biochemical; conditions: 25 ng recombinant human PRMT5/MEP50 per reaction; read-out: Inhibition of PRMT5 mediated H4R3 methylation (IC50)
T1 construct: purchased BPS Bioscience
T1 sequence (O14744 2-637 limits assumed): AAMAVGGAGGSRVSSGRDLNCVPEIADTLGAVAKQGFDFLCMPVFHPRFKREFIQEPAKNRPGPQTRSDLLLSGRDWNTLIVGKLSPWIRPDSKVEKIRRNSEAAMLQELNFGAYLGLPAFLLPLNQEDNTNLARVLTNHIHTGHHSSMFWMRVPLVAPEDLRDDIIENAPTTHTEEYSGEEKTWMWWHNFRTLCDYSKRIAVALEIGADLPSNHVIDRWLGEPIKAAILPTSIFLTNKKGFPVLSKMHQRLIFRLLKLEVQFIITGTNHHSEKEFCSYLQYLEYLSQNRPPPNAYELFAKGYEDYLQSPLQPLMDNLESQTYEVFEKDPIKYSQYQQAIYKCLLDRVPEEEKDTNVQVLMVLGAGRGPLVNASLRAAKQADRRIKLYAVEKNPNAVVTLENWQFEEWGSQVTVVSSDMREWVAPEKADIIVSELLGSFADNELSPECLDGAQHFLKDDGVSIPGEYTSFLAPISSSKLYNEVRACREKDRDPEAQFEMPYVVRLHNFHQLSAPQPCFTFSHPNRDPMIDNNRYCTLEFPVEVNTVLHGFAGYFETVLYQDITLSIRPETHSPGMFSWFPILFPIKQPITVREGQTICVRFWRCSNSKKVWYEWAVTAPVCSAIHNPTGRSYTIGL
T1 sequence (Q9BQA1 2-342 partner limits assumed): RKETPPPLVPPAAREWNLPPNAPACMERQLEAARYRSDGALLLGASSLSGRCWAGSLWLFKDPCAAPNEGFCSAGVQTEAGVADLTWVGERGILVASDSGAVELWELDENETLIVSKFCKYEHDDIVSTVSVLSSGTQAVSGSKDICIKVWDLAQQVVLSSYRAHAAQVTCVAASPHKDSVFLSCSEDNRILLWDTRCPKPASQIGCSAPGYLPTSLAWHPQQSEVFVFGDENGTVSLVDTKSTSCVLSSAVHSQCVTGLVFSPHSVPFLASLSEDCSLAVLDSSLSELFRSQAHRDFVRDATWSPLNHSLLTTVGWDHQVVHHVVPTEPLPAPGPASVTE
Experimental: The inhibition of PRMT5 mediated H4R3 methylation result was obtained with Epigenase™ PRMT methyltransferase (type II-specific) activity/inhibition assay kit. 25 ng recombinant human PRMT5/MEP50 enzyme (purchased from BPS Bioscience) was used in each reaction.

In the case of `CCn1c2ccccc2c2cc(CNCc3ccccc3OC)ccc21` [HLCL-61], the apoptosis [1] is reported as “dose-dependent increase in apoptosis”, the “binding of H4R3me2 to miR-29b regulatory site” value [2] is reported as “significant decrease in binding” and the “early differentiation marker CD11b” value [3] is reported as “dose-dependent up-regulation”. The concentration at 0.08 h ([4]; ip, 25 mg/kg) was 3150 nM, the concentration at 0.17 h ([4]; ip, 25 mg/kg) was 2280 nM and the concentration at 0.33 h ([4]; ip, 25 mg/kg) was 2040 nM. The concentration at 0.5 h ([4]; ip, 25 mg/kg) was 1830 nM, the concentration at 1 h ([4]; ip, 25 mg/kg) was 1390 nM and the concentration at 2 h ([4]; ip, 25 mg/kg) was 1500 nM. The concentration at 4 h ([4]; ip, 25 mg/kg) was 712 nM, the concentration at 6 h ([4]; ip, 25 mg/kg) was 696 nM and the concentration at 8 h ([4]; ip, 25 mg/kg) was 332 nM. For the same compound, the concentration at 24 h ([4]; ip, 25 mg/kg) was 1.4 nM, the concentration at 0.08 h ([4]; iv, 5 mg/kg) was 1220 nM and the concentration at 0.17 h ([4]; iv, 5 mg/kg) was 1610 nM. The concentration at 0.33 h ([4]; iv, 5 mg/kg) was 702 nM, the concentration at 0.5 h ([4]; iv, 5 mg/kg) was 994 nM and the concentration at 1 h ([4]; iv, 5 mg/kg) was 942 nM. It also gave a concentration at 2 h ([4]; iv, 5 mg/kg) of 525 nM, a concentration at 4 h ([4]; iv, 5 mg/kg) of 155 nM and a concentration at 6 h ([4]; iv, 5 mg/kg) of 94.4 nM. The concentration at 8 h ([4]; iv, 5 mg/kg) was 51.1 nM, the concentration at 24 h ([4]; iv, 5 mg/kg) was 6.76 nM and the “FLT3 response element (FLT3-promoter-Luciferase reporter) activities” value [5] was “disrupted”. For the same compound, the “potency, proliferation of multiple cell lines” value (multiple cell lines) was “low micromolar range” and the IC50 [6] was 12 µM.
